Source: patent publication US20140045823A1 (Neurocrine Biosciences, Inc., priority 2012, published 2014)

molecular target: T1, human GPR119 (Homo sapiens, UniProt Q8TDV5); test: AlphaScreen cAMP assay in MIN6 cells stably transfected with human GPR119; type: cell-based; settings: Min-6/hGPR119 cells, 45 min at room temperature
T1 construct: expression vector for human GPR119 cDNA (Acc. No. NP_848566); expressed in transfected cells; Min-6/hGPR119
T1 sequence (Q8TDV5 1-335): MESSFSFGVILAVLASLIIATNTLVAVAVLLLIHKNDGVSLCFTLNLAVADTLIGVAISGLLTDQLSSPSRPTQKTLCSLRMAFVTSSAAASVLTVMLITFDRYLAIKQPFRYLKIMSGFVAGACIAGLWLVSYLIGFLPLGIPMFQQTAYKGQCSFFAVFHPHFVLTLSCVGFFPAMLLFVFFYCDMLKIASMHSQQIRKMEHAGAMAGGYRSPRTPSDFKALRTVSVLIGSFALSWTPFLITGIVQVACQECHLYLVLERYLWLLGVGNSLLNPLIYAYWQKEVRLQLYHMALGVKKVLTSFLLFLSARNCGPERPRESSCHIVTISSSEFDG
Procedure, shortened: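 cAMP accumulation quantified by AlphaScreen after 45 min compound stimulation at about 20 °C. Stimulation buffer: pH 7.4 HEPES saline with 0.5 mM IBMX, 0.1% BSA, 1% DMSO final. Cells: MIN6 stably transfected with human GPR119, 10000/well, cultured 24 h beforehand.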

Row | Structure (SMILES) | EC50 [nM]
1 | CC(C)(C)OC(=O)N1CCC(N(C(=O)c2cnc(-c3ccc(CC(=O)NCCOC(F)(F)F)cc3)nc2)C2CC2)CC1 [Example 191, 4-[Cyclopropyl-(2-{4-[(2-trifluoromethoxy-ethylcarbamoyl)-methyl]-phenyl}-pyrimidine-5-carbonyl)-amino]-piperidine-1-carboxylic acid tert-butyl ester] | 420
2 | CC(C)(C)OC(=O)N1CCC(N(C(=O)c2cnc(-c3ccc(CC(=O)N4CCCOCC4)cc3)nc2)C2CC2)CC1 [Example 192, 4-(Cyclopropyl-{2-[4-(2-[1,4]oxazepan-4-yl-2-oxo-ethyl)-phenyl]-pyrimidine-5-carbonyl}-amino)-piperidine-1-carboxylic acid tert-butyl ester] | 421
3 | CN(CC1CCOCC1)C(=O)c1ccc(-c2ncc(C(=O)N(C3CC3)C3CCN(C(=O)OC(C)(C)C)CC3)cn2)cc1 [Example 193, 4-[Cyclopropyl-(2-{4-[methyl-(tetrahydro-pyran-4-ylmethyl)-carbamoyl]-phenyl}-pyrimidine-5-carbonyl)-amino]-piperidine-1-carboxylic acid tert-butyl ester] | 300
4 | CO[C@@H]1CCN(C(=O)Cc2ccc(-c3ncc(C(=O)N(C4CC4)C4CCN(C(=O)OC(C)(C)C)CC4)cn3)cc2)C1 [Example 194, 4-[Cyclopropyl-(2-{4-[2-(3-methoxy-pyrrolidin-1-yl)-2-oxo-ethyl]-phenyl}-pyrimidine-5-carbonyl)-amino]-piperidine-1-carboxylic acid tert-butyl ester] | 325
5 | COCCN(C)C(=O)Cc1ccc(-c2ncc(C(=O)N(C3CC3)C3CCN(C(=O)OC(C)(C)C)CC3)cn2)cc1 [Example 195, 4-{Cyclopropyl-[2-(4-{[(2-methoxy-ethyl)-methyl-carbamoyl]-methyl}-phenyl)-pyrimidine-5-carbonyl]-amino}-piperidine-1-carboxylic acid tert-butyl ester] | 486
6 | COCCN(C)C(=O)c1ccc(-c2ncc(C(=O)N(C3CC3)C3CCN(C(=O)OC(C)(C)C)CC3)cn2)cc1 [Example 196, 4-[Cyclopropyl-(2-{4-[(2-methoxy-ethyl)-methyl-carbamoyl]-phenyl}-pyrimidine-5-carbonyl)-amino]-piperidine-1-carboxylic acid tert-butyl ester] | 215
7 | CN(Cc1cccnc1)C(=O)c1ccc(-c2ncc(C(=O)N(C3CC3)C3CCN(C(=O)OC(C)(C)C)CC3)cn2)cc1 [Example 197, 4-(Cyclopropyl-{2-[4-(methyl-pyridin-3-ylmethyl-carbamoyl)-phenyl]-pyrimidine-5-carbonyl}-amino)-piperidine-1-carboxylic acid tert-butyl ester] | 169
8 | COCC(C)NC(=O)Cc1ccc(-c2ncc(C(=O)N(C3CC3)C3CCN(C(=O)OC(C)(C)C)CC3)cn2)cc1 (stereo not shown) [Example 198, 4-[Cyclopropyl-(2-{4-[(2-methoxy-1-methyl-ethylcarbamoyl)-methyl]-phenyl}-pyrimidine-5-carbonyl)-amino]-piperidine-1-carboxylic acid tert-butyl ester] | 715

Second part, the compound after the results:

Row | EC50 [nM] | Structure (SMILES)
9 | 395 | Cc1cnc(CNC(=O)Cc2ccc(-c3ncc(C(=O)N(C4CC4)C4CCN(C(=O)OC(C)(C)C)CC4)cn3)cc2)s1 [Example 199, 4-{Cyclopropyl-[2-(4-{[(5-methyl-thiazol-2-ylmethyl)-carbamoyl]-methyl}-phenyl)-pyrimidine-5-carbonyl]-amino}-piperidine-1-carboxylic acid tert-buyl ester]
10 | 449 | CN(C)C(=O)CNC(=O)c1ccc(-c2ncc(C(=O)N(C3CC3)C3CCN(C(=O)OC(C)(C)C)CC3)cn2)cc1 [Example 200, 4-(Cyclopropyl-{2-[4-(dimethylcarbamoylmethyl-carbamoyl)-phenyl]-pyrimidine-5-carbonyl}-amino)-piperidine-1-carboxylic acid tert-butyl ester]
11 | 180 | Cc1nc(CNC(=O)c2ccc(-c3ncc(C(=O)N(C4CC4)C4CCN(C(=O)OC(C)(C)C)CC4)cn3)cc2)cs1 [Example 201, 4-[Cyclopropyl-(2-{4-[(2-methyl-thiazol-4-ylmethyl)-carbamoyl]-phenyl}-pyrimidine-5-carbonyl)-amino]-piperidine-1-carboxylic acid tert-butyl ester]
12 | 171 | CN(CC1CCOC1)C(=O)c1ccc(-c2ncc(C(=O)N(C3CC3)C3CCN(C(=O)OC(C)(C)C)CC3)cn2)cc1 (stereo not shown) [Example 202, 4-[Cyclopropyl-(2-{4-[methyl-(tetrahydro-furan-3-ylmethyl)-carbamoyl]-phenyl}-pyrimidine-5-carbonyl)-amino]-piperidine-1-carboxylic acid tert-butyl ester]
13 | 295 | COC[C@H]1CCCN1C(=O)c1ccc(-c2ncc(C(=O)N(C3CC3)C3CCN(C(=O)OC(C)(C)C)CC3)cn2)cc1 [Example 203, 4-(Cyclopropyl-{2-[4-(2-methoxymethyl-pyrrolidine-1-carbonyl)-phenyl]-pyrimidine-5-carbonyl}-amino)-piperidine-1-carboxylic acid tert-butyl ester]
14 | 302 | COC[C@@H]1CCCN1C(=O)c1ccc(-c2ncc(C(=O)N(C3CC3)C3CCN(C(=O)OC(C)(C)C)CC3)cn2)cc1 [Example 204, 4-(Cyclopropyl-{2-[4-(2-methoxymethyl-pyrrolidine-1-carbonyl)-phenyl]-pyrimidine-5-carbonyl}-amino)-piperidine-1-carboxylic acid tert-butyl ester]
15 | 347 | CN(C(=O)c1ccc(-c2ncc(C(=O)N(C3CC3)C3CCN(C(=O)OC(C)(C)C)CC3)cn2)cc1)C1CCOCC1 [Example 205, 4-[Cyclopropyl-(2-{4-[methyl-(tetrahydro-pyran-4-yl)-carbamoyl]-phenyl}-pyrimidine-5-carbonyl)-amino]-piperidine-1-carboxylic acid tert-butyl ester]
16 | 312 | CN(CC1(C)COC1)C(=O)c1ccc(-c2ncc(C(=O)N(C3CC3)C3CCN(C(=O)OC(C)(C)C)CC3)cn2)cc1 [Example 206, 4-[Cyclopropyl-(2-{4-[methyl-(3-methyl-oxetan-3-ylmethyl)-carbamoyl]-phenyl}-pyrimidine-5-carbonyl)-amino]-piperidine-1-carboxylic acid tert-butyl ester]
17 | 369 | CC(C)(C)OC(=O)N1CCC(N(C(=O)c2cnc(-c3ccc(C(=O)NCCn4ccc(C5CC5)n4)cc3)nc2)C2CC2)CC1 [Example 207, 4-[Cyclopropyl-(2-{4-[2-(3-cyclopropyl-pyrazol-1-yl)-ethylcarbamoyl]-phenyl}-pyrimidine-5-carbonyl)-amino]-piperidine-1-carboxylic acid tert-butyl ester]
18 | 181 | CC(C)(C)OC(=O)N1CCC(N(C(=O)c2cnc(-c3ccc(C(=O)Nc4ccn[nH]4)cc3)nc2)C2CC2)CC1 [Example 208, 4-(Cyclopropyl-{2-[4-(2H-pyrazol-3-ylcarbamoyl)-phenyl]-pyrimidine-5-carbonyl}-amino)-piperidine-1-carboxylic acid tert-butyl ester]
19 | 312 | CN(Cc1ccncc1)C(=O)Cc1ccc(-c2ncc(C(=O)N(C3CC3)C3CCN(C(=O)OC(C)(C)C)CC3)cn2)cc1 [Example 209, 4-[Cyclopropyl-(2-{4-[(methyl-pyridin-4-ylmethyl-carbamoyl)-methyl]-phenyl}-pyrimidine-5-carbonyl)-amino]-piperidine-1-carboxylic acid tert-butyl ester]
